Assay results from ChEMBL document CHEMBL1126423, “Acid-catalyzed O-allylation of -hydroxy--amino acids: an entry into conformationally constrained dipeptide surrogates” (Bioorg Med Chem Lett, 1992).

Target: T1, Angiotensin-converting enzyme (Oryctolagus cuniculus, UniProt P12822)
T1 sequence (P12822 whole entry): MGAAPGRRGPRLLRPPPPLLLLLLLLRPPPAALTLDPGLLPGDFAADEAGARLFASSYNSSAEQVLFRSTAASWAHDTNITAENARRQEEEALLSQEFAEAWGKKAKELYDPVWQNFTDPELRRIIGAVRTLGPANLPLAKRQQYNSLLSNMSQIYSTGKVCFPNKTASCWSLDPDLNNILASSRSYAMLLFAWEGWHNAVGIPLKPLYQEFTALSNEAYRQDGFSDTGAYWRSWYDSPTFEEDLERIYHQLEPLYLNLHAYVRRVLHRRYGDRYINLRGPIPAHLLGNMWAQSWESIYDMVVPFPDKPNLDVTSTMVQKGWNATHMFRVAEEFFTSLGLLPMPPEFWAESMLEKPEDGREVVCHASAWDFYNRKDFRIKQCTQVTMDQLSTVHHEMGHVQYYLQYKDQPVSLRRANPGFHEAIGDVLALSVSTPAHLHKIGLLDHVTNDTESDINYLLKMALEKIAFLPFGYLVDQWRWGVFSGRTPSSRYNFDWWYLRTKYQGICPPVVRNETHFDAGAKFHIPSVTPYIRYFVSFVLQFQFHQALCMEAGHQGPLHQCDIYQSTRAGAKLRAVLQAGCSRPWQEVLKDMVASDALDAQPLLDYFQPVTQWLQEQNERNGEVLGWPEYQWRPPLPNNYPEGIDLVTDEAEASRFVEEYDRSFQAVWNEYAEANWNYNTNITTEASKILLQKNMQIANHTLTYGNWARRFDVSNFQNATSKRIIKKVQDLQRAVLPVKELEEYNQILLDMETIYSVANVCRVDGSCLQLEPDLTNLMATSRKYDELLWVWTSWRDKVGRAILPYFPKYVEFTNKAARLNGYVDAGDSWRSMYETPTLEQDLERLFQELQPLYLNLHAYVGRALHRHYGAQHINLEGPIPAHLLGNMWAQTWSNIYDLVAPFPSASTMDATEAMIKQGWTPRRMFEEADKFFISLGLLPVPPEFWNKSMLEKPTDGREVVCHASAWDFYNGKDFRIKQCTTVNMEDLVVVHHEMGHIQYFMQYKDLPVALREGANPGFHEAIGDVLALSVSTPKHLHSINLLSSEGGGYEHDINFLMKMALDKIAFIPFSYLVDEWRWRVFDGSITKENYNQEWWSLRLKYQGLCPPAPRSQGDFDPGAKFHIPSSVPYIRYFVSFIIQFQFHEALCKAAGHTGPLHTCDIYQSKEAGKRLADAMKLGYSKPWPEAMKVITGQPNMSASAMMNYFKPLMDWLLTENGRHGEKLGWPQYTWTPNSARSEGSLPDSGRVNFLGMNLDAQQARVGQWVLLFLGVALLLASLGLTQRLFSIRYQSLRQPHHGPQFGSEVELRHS
Assay: Inhibitory concentration against rabbit lung Angiotensin I converting enzyme (ACE)

IC50: 0.09 nM
Compound: O=C(O)[C@H](CCc1ccccc1)NC1Cc2ccccc2C2COC[C@H](C(=O)O)N2C1=O (stereo partly specified)
